This assay addresses T1, human GR (Homo sapiens, UniProt P04150).
T1 sequence (P04150 1-777): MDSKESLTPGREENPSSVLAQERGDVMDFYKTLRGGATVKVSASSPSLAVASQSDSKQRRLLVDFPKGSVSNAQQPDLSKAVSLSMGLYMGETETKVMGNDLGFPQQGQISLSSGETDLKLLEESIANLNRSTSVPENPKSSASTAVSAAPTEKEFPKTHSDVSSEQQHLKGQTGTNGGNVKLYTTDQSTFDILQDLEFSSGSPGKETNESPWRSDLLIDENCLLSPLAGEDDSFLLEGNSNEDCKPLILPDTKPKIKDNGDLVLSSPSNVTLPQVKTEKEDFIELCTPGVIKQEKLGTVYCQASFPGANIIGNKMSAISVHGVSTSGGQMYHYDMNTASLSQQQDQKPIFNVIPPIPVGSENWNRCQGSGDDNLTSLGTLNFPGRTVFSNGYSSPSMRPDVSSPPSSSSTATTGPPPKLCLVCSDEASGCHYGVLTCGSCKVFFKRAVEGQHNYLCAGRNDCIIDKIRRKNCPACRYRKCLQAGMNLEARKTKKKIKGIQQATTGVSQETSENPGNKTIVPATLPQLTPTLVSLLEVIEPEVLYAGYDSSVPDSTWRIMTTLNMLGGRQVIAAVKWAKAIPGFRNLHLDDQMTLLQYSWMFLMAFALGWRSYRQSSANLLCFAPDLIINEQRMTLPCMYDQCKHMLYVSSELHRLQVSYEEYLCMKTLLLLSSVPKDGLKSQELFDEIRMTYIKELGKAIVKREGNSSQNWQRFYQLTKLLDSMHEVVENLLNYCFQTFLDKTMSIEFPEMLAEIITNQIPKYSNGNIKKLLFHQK
Nature of the assay: Transrepression Assay (GITAR), TNFα-β-lactamase reporter in U937 cells. The settings on record: for GITAR > GRAMM % SEP: GITAR Emax minus GRAMMER Emax; for pEC50: U937 cells, inflection point, read-out: Transrepression U937 Cells GITAR IP. The class given is cell-based. More on the design: U937 cells contain an endogenous glucocorticoid receptor (GR); endogenous in cells; host or cells: U937 cells stably transfected with the TNF-alpha promoter/beta-lactamase reporter. In short, it runs like this:
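First, U937 reporter cells (TNF-α promoter–β-lactamase, native GR) received compound for 30–45 min at 37 °C. Next, PMA (5 ng/ml) and LPS (100 ng/ml) final were added for about 18 hr. Finally, CCF2-AM loading gave the read-out, with 100 nM dexamethasone as 100%.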

Where [1] appears, read: U-937, U937 cells, maximum activity, read-out: Transrepression U937 Cells GITAR Emax.
The mark [2] stands for this setting: U-937, activity repressed by 100 nM dexamethasone alone set as 100%, read-out: maximal activity in the transrepression (GITAR) assay.

pEC50: −log10 of the molar value. Where two headings read alike, the source gives them in different places.

Regarding `C[C@]12Cc3cnn(-c4ccc(F)cc4)c3C=C1CC[C@@H]2CN(CC(OS(=O)(=O)CC(F)(F)F)c1ccccn1)S(=O)(=O)CC(F)(F)F` (stereo partly drawn) [Example 145, 2-{{[(4αR,5S)-1-(4-fluorophenyl)-4α-methyl-1,4,4α,5,6,7-hexahydrocyclopenta[f]indazol-5-yl]methyl}[(2,2,2-trifluoroethyl)sulfonyl]amino}-1-pyridin-2-ylethyl 2,2,2-trifluoroethanesulfonate], the “GITAR > GRAMM % SEP” value is reported as 33.3% and the pEC50 is 6.71. For the same compound, the Emax under setting [1] was found to be 93.5%. In addition, under setting [2], the Emax was above 5%.
The matching figures for `CC(CN(C[C@H]1CCC2=Cc3c(cnn3-c3ccc(F)cc3)C[C@@]21C)S(=O)(=O)CC(F)(F)F)c1cccnc1` (stereo partly drawn) [Example 146, 2,2,2-trifluoro-N-{[(4αR,5S)-1-(4-fluorophenyl)-4α-methyl-1,4,4α,5,6,7-hexahydrocyclopenta[f]indazol-5-yl]methyl}-N-(2-pyridin-3-ylpropyl)ethanesulfonamide]: 1.8%, 6.51, 93.3% and above 5%.
The matching figures for `C[C@]12Cc3cnn(-c4ccc(F)cc4)c3C=C1CC[C@@H]2CN(CCC(N)C(F)(F)F)S(=O)(=O)CC(F)(F)F` (stereo partly drawn) [Example 147, N-(3-amino-4,4,4-trifluorobutyl)-2,2,2-trifluoro-N-{[(4aR,5S)-1-(4-fluorophenyl)-4α-methyl-1,4,4α,5,6,7-hexahydrocyclopenta[f]indazol-5-yl]methyl}ethanesulfonamide]: 0.3%, 6.15, 78.4% and above 5%.
The matching figures for `CCCS(=O)(=O)N(CC(O)C(F)(F)F)C[C@H]1CCC2=Cc3c(cnn3-c3ccc(F)cc3)C[C@@]21C` (stereo partly drawn) [Example 148, N-{[(4αR,5S)-1-(4-fluorophenyl)-4α-methyl-1,4,4α,5,6,7-hexahydrocyclopenta[f]indazol-5-yl]methyl}-N-(3,3,3-trifluoro-2-hydroxypropyl)propane-1-sulfonamide]: 14.9%, 6.07, 77.6% and above 5%.
Take `C[C@]12Cc3cnn(-c4ccc(F)cc4)c3C=C1CC[C@@H]2CN(CC(O)C(F)(F)F)S(=O)(=O)Cc1cccnc1` (stereo partly drawn) [Example 149, N-{[(4αR,5S)-1-(4-fluorophenyl)-4α-methyl-1,4,4α,5,6,7-hexahydrocyclopenta[f]indazol-5-yl]methyl}-1-pyridin-3-yl-N-(3,3,3-trifluoro-2-hydroxypropyl)methanesulfonamide]: the “GITAR > GRAMM % SEP” value is 44.7% and the pEC50 was 6.60. For the same compound, under setting [1], the Emax was determined as 77.1%. Besides, under setting [2], the Emax was above 5%.
The matching figures for `Cn1cc(S(=O)(=O)N(CCc2ccccn2)C[C@H]2CCC3=Cc4c(cnn4-c4ccc(F)cc4)C[C@@]32C)c(C(F)(F)F)n1` [Example 150, N-{[(4αR,5S)-1-(4-fluorophenyl)-4α-methyl-1,4,4α,5,6,7-hexahydrocyclopenta[f]indazol-5-yl]methyl}-1-methyl-N-(2-pyridin-2-ylethyl)-3-(trifluoromethyl)-1H-pyrazole-4-sulfonamide]: 33.7%, 6.42, 79.3% and above 5%.
In the same order, the values of `CCCS(=O)(=O)N(CCc1ccccn1)C[C@H]1CCC2=Cc3c(cnn3-c3ccc(F)cc3)C[C@@]21C` [Example 151, N-{[(4αR,5S)-1-(4-fluorophenyl)-4α-methyl-1,4,4α,5,6,7-hexahydrocyclopenta[f]indazol-5-yl]methyl}-N-(2-pyridin-2-ylethyl)propane-1-sulfonamide] are 7.2%, 6.26, 83.3% and above 5%.
With `C[C@]12Cc3cnn(-c4ccc(F)cc4)c3C=C1CC[C@@H]2CN(CCc1ccccn1)S(=O)(=O)CCN1C(=O)c2ccccc2C1=O` [Example 152, 2-(1,3-dioxo-1,3-dihydro-2H-isoindol-2-yl)-N-{[(4αR,5S)-1-(4-fluorophenyl)-4α-methyl-1,4,4α,5,6,7-hexahydrocyclopenta[f]indazol-5-yl]methyl}-N-(2-pyridin-2-ylethyl)ethanesulfonamide], the “GITAR > GRAMM % SEP” value came out at 21.0% and the pEC50 was 5.99. In addition, the Emax under setting [1] came out at 23%. The Emax under setting [2] is above 5%.
In the same order, the values of `C[C@]12Cc3cnn(-c4ccc(F)cc4)c3C=C1CC[C@@H]2CN(CCc1ccccn1)S(=O)(=O)Cc1ccccc1C(F)(F)F` [Example 153, N-{[(4αR,5S)-1-(4-fluorophenyl)-4α-methyl-1,4,4α,5,6,7-hexahydrocyclopenta[f]indazol-5-yl]methyl}-N-(2-pyridin-2-ylethyl)-1-[2-(trifluoromethyl)phenyl]methanesulfonamide] are 37.2%, 6.58, 52.4% and above 5%.
The matching figures for `C[C@]12Cc3cnn(-c4ccc(F)cc4)c3C=C1CC[C@@H]2CN(CC(O)C(F)F)S(=O)(=O)Cc1cccnc1` (stereo partly drawn) [Example 154, N-(3,3-difluoro-2-hydroxypropyl)-N-{[(4αR,5S)-1-(4-fluorophenyl)-4α-methyl-1,4,4α,5,6,7-hexahydrocyclopenta[f]indazol-5-yl]methyl}-1-pyridin-3-ylmethanesulfonamide]: 48.7%, 6.21, 66.5% and above 5%.
`CCCS(=O)(=O)N(CC(O)C(F)F)C[C@H]1CCC2=Cc3c(cnn3-c3ccc(F)cc3)C[C@@]21C` (stereo partly drawn) [Example 155, N-(3,3-difluoro-2-hydroxypropyl)-N-{[(4αR,5S)-1-(4-fluorophenyl)-4α-methyl-1,4,4α,5,6,7-hexahydrocyclopenta[f]indazol-5-yl]methyl}propane-1-sulfonamide]: the “GITAR > GRAMM % SEP” value is recorded as 32.2% and the pEC50 was 5.96. The Emax under setting [1] is 61.3%. For the same compound, under setting [2], the Emax was above 5%.
For the compound `Cn1cc(S(=O)(=O)N(CC(O)C(F)F)C[C@H]2CCC3=Cc4c(cnn4-c4ccc(F)cc4)C[C@@]32C)c(C(F)(F)F)n1` (stereo partly drawn) [Example 156, N-(3,3-difluoro-2-hydroxypropyl)-N-{[(4αR,5S)-1-(4-fluorophenyl)-4α-methyl-1,4,4α,5,6,7-hexahydrocyclopenta[f]indazol-5-yl]methyl}-1-methyl-3-(trifluoromethyl)-1H-pyrazole-4-sulfonamide], the “GITAR > GRAMM % SEP” value stood at 15.0% and the pEC50 is 6.64. Moreover, the Emax under setting [1] was 19.5%. Moreover, the Emax under setting [2] was above 5%.
Turning to `Cn1cc(S(=O)(=O)N(CC(O)c2ccccn2)C[C@H]2CCC3=Cc4c(cnn4-c4ccc(F)cc4)C[C@@]32C)c(C(F)(F)F)n1` (stereo partly drawn) [Example 157, N-{[(4αR,5S)-1-(4-fluorophenyl)-4α-methyl-1,4,4α,5,6,7-hexahydrocyclopenta[f]indazol-5-yl]methyl}-N-(2-hydroxy-2-pyridin-2-ylethyl)-1-methyl-3-(trifluoromethyl)-1H-pyrazole-4-sulfonamide], the “GITAR > GRAMM % SEP” value came to 30.0% and the pEC50 was 7.54. The Emax under setting [1] is 93.6%. For the same compound, the Emax under setting [2] was above 5%.
In the same order, the values of `C[C@]12Cc3cnn(-c4ccc(F)cc4)c3C=C1CC[C@@H]2CN(CC=O)S(=O)(=O)c1ccccc1F` [Example 158, 2-fluoro-N-{[(4αR,5S)-1-(4-fluorophenyl)-4α-methyl-1,4,4α,5,6,7-hexahydrocyclopenta[f]indazol-5-yl]methyl}-N-(2-oxoethyl)benzenesulfonamide] are 41.6%, 6.25, 77.8% and above 5%.
The matching figures for `COC(=O)c1ccccc1CCN(C[C@H]1CCC2=Cc3c(cnn3-c3ccc(F)cc3)C[C@@]21C)S(=O)(=O)CC(F)(F)F` [Example 159, methyl 2-(2-{{[(4αR,5S)-1-(4-fluorophenyl)-4α-methyl-1,4,4α,5,6,7-hexahydrocyclopenta[f]indazol-5-yl]methyl}[(2,2,2-trifluoroethyl)sulfonyl]amino}ethyl)benzoate]: 5.2%, 6.26, 34.1% and above 5%.

Values taken from US8299048B2, “Hexahydrocyclopentyl[f]indazole sulfonamides and derivatives thereof as selective glucocorticoid receptor modulators” (Merck Sharp & Dohme Corp., priority 2008, dated 2012).
